Measured values from article PMC13014258 (JACS Au, 2026).

Test system: CTSB
Experiment: CTSB inhibitor study, CTSB channel fluorescence of the probes in cells
Type: cell-based
Conditions: HeLa cells, CA-074 500 nM 15 min, n = 30

Compound: CCCNC(=O)[C@H]1O[C@@H]1C(=O)N[C@H](C(=O)N1CCC[C@H]1C(=O)O)[C@@H](C)CC [CTSB inhibitor]
- CTSB (blue) channel intensities of MSS2 and MSS3 in inhibitor-treated cells at resting state (then MSS2/MSS3 10 μM 5 min): significantly reduced
- CTSB (blue) channel intensities of MSS4 and MSS5 in inhibitor-treated cells at resting state (then MSS4/MSS5 10 μM 5 min): significantly reduced
